Data reported in ChEMBL document CHEMBL4813981, “Synthesis and in vitro antibacterial activity of new aminothiazole-oximepiperidone cephalosporins” (2021).

Legend:
Klebsiella pneumoniae [1] = assay: Antibacterial activity against ESBLs negative Carbapenem-sensitive Klebsiella pneumoniae 17-18 assessed as reduction in bacterial growth; format: functional
Acinetobacter baumannii [2] = assay: Antibacterial activity against Carbapenem- resistant Acinetobacter baumannii 17-5 assessed as reduction in bacterial growth; format: functional
Escherichia coli [3] = assay: Antibacterial activity against ESBLs positive Carbapenem-sensitive Escherichia coli 17-14 assessed as reduction in bacterial growth; format: functional
Enterobacter cloacae [4] = assay: Antibacterial activity against Enterobacter cloacae 17-2 assessed as reduction in bacterial growth; format: functional
Klebsiella pneumoniae [5] = assay: Bactericidal activity against Klebsiella pneumoniae ATCC BAA-1705 assessed as reduction in bacterial growth; format: functional
Enterobacter cloacae [6] = assay: Antibacterial activity against Enterobacter cloacae 17-10 assessed as reduction in bacterial growth in the presence of Avibactam; format: functional
Klebsiella pneumoniae [7] = assay: Antibacterial activity against Carbapenem- resistant Klebsiella pneumoniae KR 15-5 assessed as reduction in bacterial growth; format: functional
Enterobacter cloacae [8] = assay: Antibacterial activity against Enterobacter cloacae 17-3 assessed as reduction in bacterial growth; format: functional
Klebsiella pneumoniae [9] = assay: Bactericidal activity against Carbapenem- resistant Klebsiella pneumoniae KR 15-6 assessed as reduction in bacterial growth; format: functional
Klebsiella aerogenes [10] = assay: Antibacterial activity against Enterobacter aerogenes 15-7 assessed as reduction in bacterial growth; format: functional
Klebsiella pneumoniae [11] = assay: Antibacterial activity against Carbapenem- sensitive Klebsiella pneumoniae 17-14 overexpressing extended spectrum beta-lactamases assessed as reduction in bacterial growth; format: functional
Escherichia coli [12] = assay: Antibacterial activity against ESBLs positive Carbapenem-sensitive Escherichia coli 17-6 assessed as reduction in bacterial growth; format: functional
Klebsiella pneumoniae [13] = assay: Antibacterial activity against Carbapenem- sensitive Klebsiella pneumoniae 17-1 overexpressing extended spectrum beta-lactamases assessed as reduction in bacterial growth; format: functional
Pseudomonas aeruginosa [14] = assay: Antibacterial activity against Carbapenem- sensitive Pseudomonas aeruginosa 17-26 assessed as reduction in bacterial growth; format: functional
Pseudomonas aeruginosa [15] = assay: Antibacterial activity against Carbapenem- sensitive Pseudomonas aeruginosa 17-29 assessed as reduction in bacterial growth; format: functional
Acinetobacter baumannii [16] = assay: Antibacterial activity against Carbapenem- resistant Acinetobacter baumannii 17-13 assessed as reduction in bacterial growth; format: functional
Klebsiella aerogenes [17] = assay: Antibacterial activity against Enterobacter aerogenes 15-3 assessed as reduction in bacterial growth; format: functional
Escherichia coli [18] = assay: Bactericidal activity against ESBLs negative Carbapenem--sensitive Escherichia coli 17-7 assessed as reduction in bacterial growth; format: functional
Klebsiella pneumoniae [19] = assay: Antibacterial activity against Carbapenem- sensitive Klebsiella pneumoniae 17-10 overexpressing extended spectrum beta-lactamases assessed as reduction in bacterial growth; format: functional
Klebsiella pneumoniae [20] = assay: Antibacterial activity against Carbapenem- resistant Klebsiella pneumoniae KR 15-10 assessed as reduction in bacterial growth; format: functional
Enterobacter cloacae [21] = assay: Antibacterial activity against Enterobacter cloacae 17-2 assessed as reduction in bacterial growth
Escherichia coli [22] = assay: Antibacterial activity against ESBLs positive Carbapenem-sensitive Escherichia coli 17-11 assessed as reduction in bacterial growth; format: functional
Pseudomonas aeruginosa [23] = assay: Antibacterial activity against Carbapenem- sensitive Pseudomonas aeruginosa 17-7 assessed as reduction in bacterial growth; format: functional
Klebsiella pneumoniae [24] = assay: Antibacterial activity against Carbapenem- sensitive Klebsiella pneumoniae 17-6 overexpressing extended spectrum beta-lactamases assessed as reduction in bacterial growth; format: functional
Enterobacter cloacae [25] = assay: Bactericidal activity against Enterobacter cloacae 17-10 assessed as reduction in bacterial growth; format: functional
Klebsiella pneumoniae [26] = assay: Antibacterial activity against Carbapenem- sensitive Klebsiella pneumoniae 17-11 overexpressing extended spectrum beta-lactamases assessed as reduction in bacterial growth; format: functional
Klebsiella pneumoniae [27] = assay: Antibacterial activity against ESBLs negative Carbapenem-sensitive Klebsiella pneumoniae 17-17 assessed as reduction in bacterial growth; format: functional
Escherichia coli [28] = assay: Bactericidal activity against ESBLs positive carbapenem-sensitive Escherichia coli 17-3 assessed as reduction in bacterial growth in the presence of avibactam; format: functional
Klebsiella pneumoniae [29] = assay: Antibacterial activity against Carbapenem- resistant Klebsiella pneumoniae KR 15-6 assessed as reduction in bacterial growth; format: functional
Escherichia coli [30] = assay: Antibacterial activity against Escherichia coli 15-5 overexpressing extended spectrum beta-lactamases assessed as reduction in bacterial growth; format: functional
Klebsiella pneumoniae [31] = assay: Antibacterial activity against Carbapenem- sensitive Klebsiella pneumoniae 17-7 overexpressing extended spectrum beta-lactamases assessed as reduction in bacterial growth; format: functional
Klebsiella pneumoniae [32] = assay: Bactericidal activity against ESBLs negative Carbapenem-sensitive Klebsiella pneumoniae 17-17 assessed as reduction in bacterial growth in the presence of avibactam; format: functional
Klebsiella pneumoniae [33] = assay: Antibacterial activity against Carbapenem- sensitive Klebsiella pneumoniae 17-13 overexpressing extended spectrum beta-lactamases assessed as reduction in bacterial growth; format: functional
Klebsiella aerogenes [34] = assay: Antibacterial activity against Enterobacter aerogenes 15-5 assessed as reduction in bacterial growth; format: functional
Klebsiella pneumoniae [35] = assay: Antibacterial activity against Carbapenem- resistant Klebsiella pneumoniae KR 15-9 assessed as reduction in bacterial growth; format: functional
Klebsiella pneumoniae [36] = assay: Antibacterial activity against Carbapenem- resistant Klebsiella pneumoniae KR 15-6 assessed as reduction in bacterial growth in the presence of Avibactam; format: functional
Klebsiella pneumoniae [37] = assay: Bactericidal activity against Carbapenem- resistant Klebsiella pneumoniae KR 15-6 assessed as reduction in bacterial growth in the presence of avibactam; format: functional
Escherichia coli [38] = assay: Antibacterial activity against Escherichia coli NCTC 13353 assessed as reduction in bacterial growth; format: functional
Klebsiella pneumoniae [39] = assay: Antibacterial activity against Carbapenem- sensitive Klebsiella pneumoniae 17-15 overexpressing extended spectrum beta-lactamases assessed as reduction in bacterial growth; format: functional
Acinetobacter baumannii [40] = assay: Antibacterial activity against Carbapenem- resistant Acinetobacter baumannii 17-3 assessed as reduction in bacterial growth; format: functional
Escherichia coli [41] = assay: Antibacterial activity against ESBLs positive Carbapenem-sensitive Escherichia coli 17-15 assessed as reduction in bacterial growth; format: functional
Klebsiella pneumoniae [42] = assay: Antibacterial activity against Carbapenem- sensitive Klebsiella pneumoniae 17-2 overexpressing extended spectrum beta-lactamases assessed as reduction in bacterial growth; format: functional
Enterobacter cloacae [43] = assay: Antibacterial activity against Enterobacter cloacae 17-10 assessed as reduction in bacterial growth; format: functional
Klebsiella pneumoniae [44] = assay: Antibacterial activity against ESBLs positive Carbapenem-sensitive Klebsiella pneumoniae 17-4 assessed as reduction in bacterial growth in the presence of Avibactam; format: functional
Acinetobacter baumannii [45] = assay: Antibacterial activity against Carbapenem- resistant Acinetobacter baumannii 17-2 assessed as reduction in bacterial growth; format: functional
Enterobacter cloacae [46] = assay: Bactericidal activity against Enterobacter cloacae 17-9 assessed as reduction in bacterial growth in the presence of avibactam; format: functional
Enterobacter cloacae [47] = assay: Antibacterial activity against Enterobacter cloacae 17-9 assessed as reduction in bacterial growth; format: functional
Pseudomonas aeruginosa [48] = assay: Bactericidal activity against carbapenem-sensitive Pseudomonas aeruginosa 17-29 assessed as reduction in bacterial growth in the presence of avibactam; format: functional
Escherichia coli [49] = assay: Antibacterial activity against ESBLs positive Carbapenem-sensitive Escherichia coli 17-5 assessed as reduction in bacterial growth; format: functional
Klebsiella pneumoniae [50] = assay: Bactericidal activity against Carbapenem- resistant Klebsiella pneumoniae KR 15-7 assessed as reduction in bacterial growth in the presence of avibactam; format: functional
Escherichia coli [51] = assay: Bactericidal activity against Escherichia coli NCTC 13353 assessed as reduction in bacterial growth in the presence of avibactam; format: functional
Escherichia coli [52] = assay: Antibacterial activity against ESBLs positive Carbapenem-sensitive Escherichia coli 17-22 assessed as reduction in bacterial growth; format: functional

Nc1nc(/C(=N/OCc2cc(=O)c(O)cn2O)C(=O)N[C@@H]2C(=O)N3C(C(=O)O)=CCS[C@H]23)cs1
≤ 0.03 µg/mL: MIC (Klebsiella pneumoniae [1])
> 64 µg/mL: MIC (Acinetobacter baumannii [2]) | MIC (Enterobacter cloacae [4]) | MBC (Klebsiella pneumoniae [5]) | MIC (Klebsiella pneumoniae [7]) | MIC (Acinetobacter baumannii [16]) | MIC (Klebsiella aerogenes [17]) | MIC (Klebsiella pneumoniae [19]) | MIC (Klebsiella pneumoniae [20]) | MIC (Enterobacter cloacae [21]) | MIC (Escherichia coli [22]) | MIC (Klebsiella pneumoniae [26]) | MIC (Escherichia coli [30]) | MIC (Klebsiella pneumoniae [31]) | MIC (Klebsiella pneumoniae [35]) | MIC (Escherichia coli [38]) | MIC (Acinetobacter baumannii [40]) | MIC (Escherichia coli [41]) | MIC (Acinetobacter baumannii [45]) | MIC (Escherichia coli [52])
0.5 µg/mL: MIC (Enterobacter cloacae [6]) | MIC (Klebsiella pneumoniae [36]) | MBC (Klebsiella pneumoniae [37]) | MBC (Escherichia coli [51])
2 µg/mL: MIC (Pseudomonas aeruginosa [14]) | MIC (Pseudomonas aeruginosa [15]) | MIC (Klebsiella pneumoniae [42]) | MIC (Klebsiella pneumoniae [44]) | MBC (Enterobacter cloacae [46]) | MBC (Klebsiella pneumoniae [50])
64 µg/mL: MIC (Escherichia coli [3]) | MIC (Enterobacter cloacae [8]) | MBC (Klebsiella pneumoniae [9]) | MIC (Klebsiella pneumoniae [13]) | MIC (Klebsiella pneumoniae [39]) | MIC (Escherichia coli [49])
> 8 µg/mL: MBC (Enterobacter cloacae [25])
8 µg/mL: MIC (Klebsiella aerogenes [34]) | MIC (Enterobacter cloacae [47]) | MBC (Pseudomonas aeruginosa [48])
4 µg/mL: MIC (Klebsiella aerogenes [10]) | MIC (Klebsiella pneumoniae [11]) | MBC (Escherichia coli [18])
0.125 µg/mL: MIC (Klebsiella pneumoniae [27])
16 µg/mL: MIC (Klebsiella pneumoniae [29])
32 µg/mL: MIC (Escherichia coli [12])
0.25 µg/mL: MIC (Pseudomonas aeruginosa [23]) | MIC (Klebsiella pneumoniae [24]) | MBC (Escherichia coli [28])
1 µg/mL: MBC (Klebsiella pneumoniae [32]) | MIC (Klebsiella pneumoniae [33]) | MIC (Enterobacter cloacae [43])

CC(C)(O/N=C(\C(=O)N[C@@H]1C(=O)N2C(C(=O)[O-])=C(C[n+]3ccccc3)CS[C@H]12)c1csc(N)n1)C(=O)O [CEFTAZIDIME]
0.5 µg/mL: MIC (Enterobacter cloacae [47])
16 µg/mL: MIC (Escherichia coli [3]) | MIC (Klebsiella aerogenes [10]) | MIC (Klebsiella pneumoniae [19]) | MIC (Klebsiella aerogenes [34])
0.125 µg/mL: MIC (Klebsiella pneumoniae [1]) | MIC (Pseudomonas aeruginosa [23]) | MIC (Klebsiella pneumoniae [27])
1 µg/mL: MIC (Enterobacter cloacae [6]) | MIC (Enterobacter cloacae [8]) | MIC (Pseudomonas aeruginosa [14]) | MIC (Pseudomonas aeruginosa [15]) | MIC (Klebsiella pneumoniae [36]) | MIC (Enterobacter cloacae [43]) | MBC (Escherichia coli [51])
64 µg/mL: MIC (Enterobacter cloacae [4]) | MBC (Klebsiella pneumoniae [9]) | MIC (Klebsiella pneumoniae [13]) | MIC (Enterobacter cloacae [21]) | MIC (Klebsiella pneumoniae [35]) | MIC (Escherichia coli [38]) | MIC (Escherichia coli [41])
> 64 µg/mL: MIC (Acinetobacter baumannii [2]) | MBC (Klebsiella pneumoniae [5]) | MIC (Klebsiella pneumoniae [7]) | MIC (Acinetobacter baumannii [16]) | MIC (Klebsiella aerogenes [17]) | MIC (Klebsiella pneumoniae [20]) | MIC (Klebsiella pneumoniae [31]) | MIC (Acinetobacter baumannii [40]) | MIC (Acinetobacter baumannii [45]) | MIC (Escherichia coli [52])
0.25 µg/mL: MBC (Escherichia coli [18]) | MBC (Escherichia coli [28]) | MBC (Klebsiella pneumoniae [32])
> 2 µg/mL: MBC (Enterobacter cloacae [46])
2 µg/mL: MIC (Klebsiella pneumoniae [11]) | MBC (Klebsiella pneumoniae [37]) | MIC (Klebsiella pneumoniae [42]) | MBC (Klebsiella pneumoniae [50])
8 µg/mL: MIC (Klebsiella pneumoniae [24]) | MIC (Klebsiella pneumoniae [26])
32 µg/mL: MIC (Escherichia coli [12]) | MIC (Escherichia coli [22]) | MIC (Klebsiella pneumoniae [29]) | MIC (Escherichia coli [30]) | MIC (Klebsiella pneumoniae [39])
4 µg/mL: MBC (Enterobacter cloacae [25]) | MIC (Klebsiella pneumoniae [33]) | MIC (Klebsiella pneumoniae [44]) | MBC (Pseudomonas aeruginosa [48]) | MIC (Escherichia coli [49])

C[C@@H](O)[C@H]1C(=O)N2C(C(=O)O)=C(S[C@@H]3CN[C@H](C(=O)N(C)C)C3)[C@H](C)[C@H]12 [MEROPENEM]
4 µg/mL: MIC (Klebsiella aerogenes [17])
> 64 µg/mL: MIC (Klebsiella pneumoniae [7]) | MIC (Klebsiella pneumoniae [20]) | MIC (Klebsiella pneumoniae [29]) | MIC (Klebsiella pneumoniae [35])
0.06 µg/mL: MIC (Enterobacter cloacae [8]) | MIC (Klebsiella pneumoniae [13]) | MIC (Pseudomonas aeruginosa [23]) | MIC (Klebsiella pneumoniae [26]) | MIC (Klebsiella pneumoniae [31]) | MIC (Escherichia coli [52])
1 µg/mL: MIC (Klebsiella pneumoniae [11]) | MIC (Pseudomonas aeruginosa [14]) | MIC (Pseudomonas aeruginosa [15])
64 µg/mL: MIC (Acinetobacter baumannii [2]) | MIC (Acinetobacter baumannii [16]) | MIC (Acinetobacter baumannii [45])
0.125 µg/mL: MIC (Enterobacter cloacae [4]) | MIC (Klebsiella aerogenes [10]) | MIC (Klebsiella aerogenes [34])
< 0.03 µg/mL: MIC (Klebsiella pneumoniae [1]) | MIC (Escherichia coli [3]) | MIC (Escherichia coli [12]) | MIC (Klebsiella pneumoniae [19]) | MIC (Escherichia coli [22]) | MIC (Klebsiella pneumoniae [24]) | MIC (Klebsiella pneumoniae [27]) | MIC (Klebsiella pneumoniae [33]) | MIC (Escherichia coli [38]) | MIC (Klebsiella pneumoniae [39]) | MIC (Escherichia coli [41]) | MIC (Klebsiella pneumoniae [42]) | MIC (Enterobacter cloacae [43]) | MIC (Enterobacter cloacae [47]) | MIC (Escherichia coli [49])
16 µg/mL: MIC (Acinetobacter baumannii [40])
